Laboratory results: article PMC9795464 (JACS Au, 2022)

What was measured:
[1] = tested on: BDL-induced liver injury in mice; assay: Bile duct ligation; type: in vivo
[2] = tested on: inflammation, fibrosis and FXR target genes in liver; assay: Liver mRNA levels by qPCR in BDL mice; type: in vivo
[3] = biological target: T1, FXR (Homo sapiens, UniProt Q96RI1); assay: AlphaScreen corepressor NCoR-2 recruitment assay; type: biochemical; details: Figure 1I
T1 sequence (Q96RI1 243-472 isoform Q96RI1-2): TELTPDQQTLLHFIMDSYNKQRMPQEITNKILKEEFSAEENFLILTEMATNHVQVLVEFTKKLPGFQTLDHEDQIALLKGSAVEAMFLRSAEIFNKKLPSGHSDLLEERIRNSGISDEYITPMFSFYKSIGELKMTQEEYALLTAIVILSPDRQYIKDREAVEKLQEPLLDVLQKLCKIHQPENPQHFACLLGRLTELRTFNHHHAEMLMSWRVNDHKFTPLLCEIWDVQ

[4] = 3 mg/kg p.o. once daily day 7 to 14 after BDL

## CC[C@H]1[C@@H](O)[C@@H]2[C@H](CC[C@]3(C)[C@@H]([C@H](C)CCC(=O)O)CC[C@@H]23)[C@@]2(C)CC[C@@H](O)C[C@@H]12 [OCA, Obeticholic acid]
[1]; [4]
  collagen deposition (Sirius red) compared to the vehicle group: smaller amount
  inflammatory infiltrates (H&E) compared to the vehicle group: lower level
[1]; once daily day 7 to 14 after BDL
  BDL-induced increase in total bilirubin level in the serum: reversed
[2]
  liver mRNA expression of inflammatory biomarkers IL-6, IL-1β, iNOS, COX2: significantly decreased
[3]
  binding affinity between FXR and NCoR2: decreased the binding affinity
